According to patent US11865359B2, “Tumor imaging with x-rays and other high energy sources using as contrast agents photon-emitting phosphors having therapeutic properties” (IMMUNOLIGHT, LLC., priority 2014, dated 2024):

What was measured:
B16 cancer cells = assay: Clonogenic cell kill, visible phosphor mixtures under x-ray with and without psoralen (AMT); assay type: cell-based
From the text: Accordingly, combinations of more than two “visible” phosphors can be used in this invention. Discussed below are x-ray settings and mass ratios for clonogenic cell kill experiments. F1 refers to the insertion of an aluminum filter into the x-ray beam to act as a filter.
FIGS. 34A and 34B show cell kill comparisons (shown here as the number of surviving colonies) between B16 cancer cells treated with and without psoralen (i.e., AMT) with different phosphor mixtures, but otherwise being x-ray stimulated and containing the multiple phosphor combinations noted above. On these drawings, LDLE=low xRT dose, low energy; HDHE=high xRT dose, high energy.
On these drawings, LDLE=low xRT dose, low energy; HDHE=high xRT dose, high energy.

sarcoma cell line KP1619 = assay: Annexin V flow cytometry apoptosis assay, 1Gy 80kVp x-ray; conditions: psoralen, phosphor and x-ray present
sarcoma cell line KP1408 = assay: as above; conditions: psoralen, phosphor and x-ray present
tumor = assay: Animal study, Rodent Syngeneic Model, tumor growth delay; assay type: in vivo, BALB/c female mice; conditions: 50-100 uL intra-tumoral injection three times per week, 100 ug phosphor combination and 5 uM psoralen (AMT), X-Ray 75kVp, 30 mA, 3 min; repeated study same result
Procedure: A phosphor system containing the following phosphor combination: LaPO4:Ce^3+, Tb^3+, 3Ca3(PO4)2.Ca(Fl, Cl)2:Sb^3+, Mn^2+, ZrO6-: Pr, Si, CaSiO3:Mn, Pb was used in an animal study based on a Rodent Syngeneic Model. In this animal study, a 50-100 uL intra-tumoral injection three times per week using 100 ug phosphor and 5 uM psoralen (AMT) and exposed to X-Ray dose of 75kVp using 30 mA for a duration of 3 min. The groups of mice in this study consisted of eight BALB/c female mice.

[1] = clinical use; cited from earlier work
cells = cells kept in the dark compared to those exposed to light; cited from earlier work

Structure (SMILES): O=c1ccc2cc3ccoc3cc2o1 [psoralen]
- cell kill with versus without psoralen (B16 cancer cells; higher kVp x-ray conditions, FIGS. 35A and 35B): does not show an increased kill
- apoptosis (sarcoma cell line KP1619): high apoptosis
- apoptosis (sarcoma cell line KP1408): high apoptosis

Structure (SMILES): Cc1oc2c(C)c3oc(=O)cc(C)c3cc2c1CN [AMT]
- cell kill (surviving colonies) with versus without psoralen (B16 cancer cells; Red/Yellow/Green and Flamingo/Yellow/Green phosphor mixtures, x-ray stimulated, FIGS. 34A and 34B): improved cell kill
- cell kill with versus without psoralen (B16 cancer cells; flamingo, yellow, green FYG phosphor combination, FIG. 36): pronounced cell kill
- tumor growth versus saline treated group (tumor): tumor growth delay

Structure (SMILES): Oc1cccc(-c2c3nc(c(-c4cccc(O)c4)c4ccc([nH]4)c(-c4cccc(O)c4)c4nc(c(-c5cccc(O)c5)c5ccc2[nH]5)CC4)C=C3)c1 [Foscan, Tetra (m-hydroxyphenyl) chlorin]
- duration of skin photosensitivity [1]: approximately 2 weeks

Structure (SMILES): NCCN.[Cl][Pt]([Cl])([I])[I] [[PtCl2I2(en)]]
- cytotoxicity, dark compared to light (cells): no difference in cytotoxicity
